Results taken from ChEMBL document CHEMBL5579825, “Exploration of 1-(indolin-1-yl)-2-(thiazol-2-yl)ethan-1-one derivatives as novel anti-HBV agent with potential TLR7-agonistic effect” (Eur J Med Chem, 2024).
Active and inactive are the calls of the source. The rule behind the calls is not given here.

Tests used:
[1] = Selectivity index, ratio of CC50 for human HepG2.2.15 cells to IC50 for HBV infected in human HepG2.2.15 cells assessed as inhibition of viral DNA replication; assay type: toxicity, cell-based; settings: HepG2.2.15 cells, read-out: Ratio CC50/IC50
[2] = Selectivity index, ratio of CC50 for human HepG2.2.15 cells to IC50 for HBsAg secretion in human HepG2.2.15 cells; assay type: toxicity, cell-based; settings: for selectivity ratio: HepG2.2.15 cells, read-out: Ratio CC50/IC50
[3] = Inhibition of HBsAg secretion in human HepG2.2.15 cells treated for 6 days with replacement of medium containing compound on every 2 days by […]; assay type: functional, cell-based; settings: HepG2 2.2.15
Hepatitis B virus [4] = assay: Antiviral activity against HBV infected in human HepG2.2.15 cells assessed as inhibition of viral DNA replication at 4 uM pre-transfected cells with viral genome followed by compound treatment for 6 days with replacement of medium containing compound on every 2 days by RT-PCR analysis relative to control; assay type: functional; settings: for inhibition at 4 µM: HepG2.2.15, 144 h, time 6 day; for inhibition: time 6.0 day
[5] = Cytotoxicity against human HepG2.2.15 cells incubated for 72 hrs by CCK8 assay; assay type: toxicity, cell-based, HepG2 2.2.15
Hepatitis B virus [6] = assay: Antiviral activity against HBV infected in human HepG2.2.15 cells assessed as inhibition of viral DNA replication pre-transfected cells with viral genome followed by compound treatment for 6 days with replacement of medium containing compound on every 2 days by RT-PCR analysis; assay type: functional, organism-based
Hepatitis B virus [7] = assay: Antiviral activity against HBV infected in human HepG2.A64 cells assessed as inhibition of viral DNA replication pre-transfected cells with viral genome followed by compound treatment for 3 days by RT-PCR analysis; assay type: functional, organism-based; settings: HepG2.A64, 72 h
[8] = Cytotoxicity against human HepG2.A64 cells incubated for 72 hrs by CCK8 assay; assay type: toxicity, cell-based
[9] = Selectivity index, ratio of CC50 for human HepG2.A64 cells to IC50 for HBV infected in human HepG2.A64 cells assessed as inhibition of viral DNA replication; assay type: toxicity, cell-based; settings: read-out: Ratio CC50/IC50
Hepatitis B virus [10] = assay: Antiviral activity against HBV infected in LAM/ETV-resistant human HepG2.A64 cells assessed as inhibition of viral DNA replication at 4 uM pre-transfected cells with viral genome followed by compound treatment for 72 hrs by RT-PCR analysis relative to control; assay type: functional
Hepatitis B virus [11] = assay: Antiviral activity against HBV infected in human HepG2.2.15 cells assessed as inhibition of viral DNA replication at 4 uM pre-transfected cells with viral genome followed by compound treatment for 72 hrs by RT-PCR analysis relative to control; assay type: functional
Hepatitis B virus [12] = assay: Antiviral activity against HBV infected in human HepG2.2.15 cells assessed as inhibition of viral DNA replication at 10 uM pre-transfected cells with viral genome followed by compound treatment for 72 hrs by RT-PCR analysis relative to control; assay type: functional
Hepatitis B virus [13] = assay: Antiviral activity against HBV infected in LAM/ETV-resistant human HepG2.A64 cells assessed as inhibition of viral DNA replication at 10 uM pre-transfected cells with viral genome followed by compound treatment for 72 hrs by RT-PCR analysis relative to control; assay type: functional
Hepatitis B virus [14] = assay: Antiviral activity against HBV infected in LAM/ETV-resistant human HepG2.A64 cells assessed as inhibition of viral DNA replication at 100 uM pre-transfected cells with viral genome followed by compound treatment for 72 hrs by RT-PCR analysis relative to control; assay type: functional
Hepatitis B virus [15] = assay: Antiviral activity against HBV infected in human HepG2.2.15 cells assessed as inhibition of viral DNA replication at 100 uM pre-transfected cells with viral genome followed by compound treatment for 72 hrs by RT-PCR analysis relative to control; assay type: functional

SMILES	selectivity ratio [1]	IC50 [3] [µM]	inhibition at 4 µM (Hepatitis B virus [4]) [%]	CC50 at 72 h [5] [µM]	IC50 (Hepatitis B virus [6]) [µM]	other results
O=C(Cc1csc(COc2ccccc2F)n1)N1CCc2cc(Br)ccc21	> 116	44.7	72.6	> 50	0.43	selectivity ratio [2]: > 0.89
O=C(Cc1csc(COc2ccc(Br)cc2)n1)N1CCc2ccccc21			25.7			
COc1ccc2c(c1)N(C(=O)Cc1csc(COc3ccccc3)n1)CC2			18.6			
O=C(Cc1csc(COc2ccccc2)n1)N1CCc2cc(Cl)ccc21	> 217	26.1	80	> 50	0.23	IC50 (Hepatitis B virus [7]): 0.57 µM; selectivity ratio [2]: > 1.92; CC50 at 72 h [8]: > 20 µM; selectivity ratio [9]: > 35.1; inhibition at 4 µM (Hepatitis B virus [10]): 73.7%; inhibition at 4 µM (Hepatitis B virus [11]): 74.5%
O=C(Cc1csc(COc2cccc(Br)c2)n1)N1CCc2ccccc21	> 59.5	42.7	73.4	> 50	0.84	selectivity ratio [2]: > 1.17
COc1cccc2c1CCN2C(=O)Cc1csc(COc2ccccc2)n1			4.26			
O=C(Cc1csc(COc2ccccc2)n1)N1CCc2ccc(Br)cc21			14.1			
O=C(Cc1csc(COc2ccccc2)n1)N1CCc2cccc(F)c21			34.6			
O=C(Cc1csc(COc2ccccc2)n1)N1CCc2ccc(F)cc21			34.2			
O=C(Cc1csc(COc2cccc(C(F)(F)F)c2)n1)N1CCc2ccccc21	> 14.2	41.6	50.9	> 50	3.51	selectivity ratio [2]: > 1.2
COc1cccc(OCc2nc(CC(=O)N3CCc4ccccc43)cs2)c1			8.33			
Cc1ccc2c(c1)CCN2C(=O)Cc1csc(COc2ccccc2)n1			40.5			
COc1ccc2c(c1)CCN2C(=O)Cc1csc(COc2ccccc2)n1	> 17.6	39.1	57.7	> 50	2.84	selectivity ratio [2]: > 1.28
Cc1cccc2c1N(C(=O)Cc1csc(COc3ccccc3)n1)CC2			13.9			
O=C(Cc1csc(COc2ccc(F)cc2)n1)N1CCc2ccccc21			19.1			
O=C(Cc1csc(COc2ccccc2)n1)N1CCc2cccc(Cl)c21	> 49.5	> 50	65.9	> 50	1.01	Ratio CC50/IC50 [2]: Not Active
O=C(Cc1csc(COc2ccccc2)n1)N1CCc2cccc(Br)c21	> 16.3	> 50	51.6	> 50	3.07	Ratio CC50/IC50 [2]: Not Active
O=C(Cc1csc(COc2ccccc2)n1)N1CCc2cc(Br)ccc21	> 132	> 50	94	> 50	0.38	Ratio CC50/IC50 [2]: Not Active
O=C(Cc1csc(COc2ccccc2)n1)N1CCc2c(Br)cccc21						inhibition (Hepatitis B virus [4]): inactive
C=C1[C@H](CO)[C@@H](O)C[C@@H]1n1cnc2c(=O)[nH]c(N)nc21 [ENTECAVIR ANHYDROUS]						inhibition at 10 µM (Hepatitis B virus [12]): 98.1%; inhibition at 10 µM (Hepatitis B virus [13]): 20.1%

SMILES	selectivity ratio [1]	IC50 [3] [µM]	inhibition at 4 µM (Hepatitis B virus [4]) [%]	CC50 at 72 h [5] [µM]	IC50 (Hepatitis B virus [6]) [µM]	other results
Nc1ccn([C@@H]2CS[C@H](CO)O2)c(=O)n1 [LAMIVUDINE]	> 1000	> 100	90.8	> 100	< 0.1	IC50 (Hepatitis B virus [7]): > 100 µM; inhibition at 100 µM (Hepatitis B virus [14]): 17.8%; inhibition at 100 µM (Hepatitis B virus [15]): 92.3%; Ratio CC50/IC50 [2]: Not Active; CC50 at 72 h [8]: > 100 µM
COc1ccc(OCc2nc(CC(=O)N3CCc4ccccc43)cs2)cc1			34.5			
COc1cccc2c1N(C(=O)Cc1csc(COc3ccccc3)n1)CC2			41.3			
O=C(Cc1csc(COc2ccccc2Br)n1)N1CCc2ccccc21						inhibition (Hepatitis B virus [4]): inactive
COc1ccccc1OCc1nc(CC(=O)N2CCc3ccccc32)cs1			45.5			
O=C(Cc1csc(COc2ccccc2)n1)N1CCc2c(F)cccc21	> 12.8	30.5	52.2	> 50	3.9	selectivity ratio [2]: > 1.64
O=C(Cc1csc(COc2ccccc2)n1)N1CCc2cc(F)ccc21			18.7			
O=C(Cc1csc(COc2ccccc2C(F)(F)F)n1)N1CCc2ccccc21	> 75.8	> 50	74.5	> 50	0.66	Ratio CC50/IC50 [2]: Not Active
Cc1ccc(OCc2nc(CC(=O)N3CCc4ccccc43)cs2)cc1			39.4			
O=C(Cc1csc(COc2ccccc2)n1)N1CCc2c(Cl)cccc21			33.9			
O=C(Cc1csc(COc2cccc(Cl)c2)n1)N1CCc2ccccc21						inhibition (Hepatitis B virus [4]): inactive
Cc1ccccc1OCc1nc(CC(=O)N2CCc3ccccc32)cs1			22.6			
Cc1cccc(OCc2nc(CC(=O)N3CCc4ccccc43)cs2)c1	> 67.6	20.4	65.4	> 50	0.74	selectivity ratio [2]: > 2.45
Cc1ccc2c(c1)N(C(=O)Cc1csc(COc3ccccc3)n1)CC2						inhibition (Hepatitis B virus [4]): inactive
O=C(Cc1csc(COc2ccccc2)n1)N1CCc2ccc(Cl)cc21	> 80.7	42.2	59.6	> 50	0.62	selectivity ratio [2]: > 1.19
O=C(Cc1csc(COc2ccccc2)n1)N1CCc2ccccc21	> 2.91	> 50	45.4	> 50	17.2	Ratio CC50/IC50 [2]: Not Active
O=C(Cc1csc(COc2cccc(F)c2)n1)N1CCc2ccccc21						inhibition (Hepatitis B virus [4]): inactive
O=C(Cc1csc(COc2ccc(C(F)(F)F)cc2)n1)N1CCc2ccccc21	> 76.9	39.5	70.2	> 50	0.65	selectivity ratio [2]: > 1.27
O=C(Cc1csc(COc2ccccc2Cl)n1)N1CCc2ccccc21			15.7			
